The text below walks through data of patent US8178506B2, “Oligomeric compounds and compositions for use in modulation of small non-coding RNAs” (Regulus Therapeutics Inc., priority 2003, dated 2012).

What all share (format): cell-based, human
Data set [1] relates to let-7d pri-miRNA. The data set can be described thus: let-7d pri-miRNA expression in T-24 cells. The settings on record: 100 nM. As to the method:
Using the transfection methods previously described, supra, T-24 cells were treated with 100 nM of the oligomeric compound ISIS Number 327926 (SEQ ID NO: 344) targeting the let-7d mature miRNA. Total RNA was isolated and expression levels of the let-7d pri-miRNA were analyzed by real-time quantitative RT-PCR using a primer/probe set specific for the let-7d pri-miRNA molecule (forward primer=ISIS 341678 (CCTAGGAAGAGGTAG TAGGTTGCA; herein incorporated as SEQ ID NO.: 771), reverse primer=ISIS 341679 ([…]; herein incorporated as SEQ ID NO.: 772), and probe=ISIS 341680 ([…]; herein incorporated as SEQ ID NO.: 773)).

The test system of data set [2] is let-7i pri-miRNA. Description: let-7i pri-miRNA expression in HeLa cells. The settings on record: 100 nM. The method, then:
Using the transfection methods previously described, HeLa cells were treated with 100 nM of the oligomeric compound ISIS Number 327890 (SEQ ID NO: 308) targeting the let-7i mature miRNA. Total RNA was isolated and expression levels of the let-7i pri-miRNA were analyzed by real-time quantitative RT-PCR using a primer/probe set specific for the let-7i pri-miRNA molecule [forward primer-ISIS 341684 ([…]; herein incorporated as SEQ ID NO.: 777), reverse primer=ISIS 341685 ([…]; herein incorporated as SEQ ID NO.: 778), and probe=ISIS 341686 ([…]; herein incorporated as SEQ ID NO.: 779)].

For data set [3], the system named is mir-21 miRNA. The data set can be described thus: pGL3-mir-21 sensor luciferase assay in HeLa cells. The source says:
In order to assess the ability of miRNAs to bind predicted miRNA binding sites and regulate the expression of the luciferase reporter, in some embodiments, expression systems based on the pGL3-Control (Promega Corp., Madison Wis.) reporter vector and comprising either a mir-15a, mir-21, or a mir-23b miRNA binding site were developed and used in transient transfections of HeLa cells to determine whether the endogenous mir-15a, mir-21, or mir-23b miRNAs, respectively, could repress luciferase reporter gene expression.
The pGL3-mir-21 sensor plasmid was created by cloning the sequence ([…]; SEQ ID NO: 335), representing a sequence complementary to the mir-21 miRNA, into the Xba site of the pGL3-Control plasmid, placing the potential miRNA-binding site in the 3′UTR of the luciferase reporter. This reporter plasmid was used to transfect HeLa cells and it was observed that the endogenous mir-21 miRNA was able to inhibit luciferase expression from the pGL3-mir-21 sensor plasmid. Thus, to further evaluate the ability of the mir-21 miRNA to bind this target site encoded by the pGL3-mir-21 sensor plasmid, and to assess the ability of oligomeric compounds to interfere with mir-21-mediated silencing, pGL3-mir-21 sensor-expressing HeLa cells were treated with varying concentrations (10 nM or 50 nM) of the following oligomeric compounds: ISIS Number 327917 (SEQ ID NO: 335), a phosphorothioate uniform 2′-MOE oligomeric compound; ISIS Number 338697 ([…]; herein incorporated as SEQ ID NO: 524), a uniform 2′-MOE oligomeric compound targeting the mir-21 pri-miRNA molecule; and ISIS Number 328415 (SEQ ID NO: 524), a 2′-MOE 5-10-5 gapmer oligomeric compound targeting the mir-21 pri-miRNA. The uniform 2′-MOE phosphorothioate oligomeric compound ISIS Number 327901 (SEQ ID NO: 319) targeting an unrelated miRNA (mir-143) was used as a negative control. The data are the average of three trials and are presented in Table 44 as percent untreated control (luciferase plasmid only, not treated with oligomeric compound) luciferase expression, normalized to pRL-CMV levels.
In one embodiment, the oligomeric compounds ISIS Number 327917 (SEQ ID NO: 335), the phosphorothioate uniform 2′-MOE targeting mature mir-21; ISIS Number 358768 (SEQ ID NO: 918), the uniform 2′-MOE targeting the mir-21 pri-miRNA which stimulated the largest increase in pri-miRNA expression levels by real time quantitative RT-PCR; and ISIS Number 345382 (SEQ ID NO: 335), the 5-10-7 phosphorothioate 2′-MOE gapmer targeting mature mir-21 were selected for dose response studies in HeLa cells using the luciferase reporter system described in Example 27. ISIS Number 342683 (SEQ ID NO: 790), representing the scrambled nucleotide sequence of an unrelated PTP1B antisense oligonucleotide, was used as a negative control. HeLa cells expressing the pGL3-mir-21 sensor plasmid (described in Example 27) were treated with 1.9, 5.5, 16.7, and 50 nM of these oligomeric compounds, to assess the ability of oligomeric compounds to interfere with endogenous mir-21-mediated silencing of the pGL3-mir-21 sensor plasmid. The data are presented in Table 50 as percent untreated control (luciferase plasmid only, not treated with oligomeric compound) luciferase expression, normalized to pRL-CMV levels.

The subject of data set [4] is mir-21 mature miRNA. Description: Northern blot of mature mir-21 in HeLa cells. The settings on record: 100 nM. The method, then: In one embodiment, the expression of mir-21 (noted to be expressed at high levels in HeLa cells) was assessed in cells treated with oligomeric compounds. Using the transfection methods previously described, HeLa cells were treated with 100 nM of the uniform 2′-MOE oligomeric compound ISIS Number 327917 (SEQ ID NO: 335) targeting the mir-21 mature miRNA. Total RNA was isolated by lysing cells in 1 mL TRIZOL™ (Invitrogen) using the manufacturer's recommended protocols. […] Real-time RT-PCR analysis was also performed on HeLa cells treated with ISIS 327917 using a primer/probe set specific for the mir-21 pri-miRNA molecule [forward primer=ISIS 339332 ([…]; herein incorporated as SEQ ID NO.: 911), reverse primer-ISIS 339333 (TCGACTGGTGTTGCCATGA; herein incorporated as SEQ ID NO.: 912), and probe=ISIS 339334 ([…]; herein incorporated as SEQ ID NO.: 913)]. Total RNA was quantified using RiboGreen™ RNA quantification reagent (Molecular Probes, Inc. Eugene, Oreg.), expression levels observed for the target were normalized to 5.8S rRNA, and values were expressed relative to an untreated control (UTC).

Data set [5] concerns mir-21 pri-miRNA. The data set can be described thus: mir-21 pri-miRNA expression in HeLa cells (real-time RT-PCR). In general terms: Quantitative PCR measures a nucleic acid by following its amplification.

Consider “ACTATGCAACCTACTACCTCT (chemistry not given here) [ISIS 327926, uniform 2′-MOE PS; targets let-7d]”, for which the “increase in expression levels of the let-7d pri-miRNA molecule” value in data set [1] is given as “approximately 1.7 fold”.
Take “AGCACAAACTACTACCTCA (chemistry not fully specified) [ISIS 327890, uniform 2′-MOE PS; targets let-7i]”: the “increase in expression levels of the let-7i pri-miRNA molecule” value in data set [2] is given as “approximately 4 fold”.
“TCAACATCAGTCTGATAAGCTA (chemistry not given here) [ISIS 327917, uniform 2′-MOE PS; targets mir-21]”: the “expression of the luciferase reporter, pGL3-mir-21 sensor” value in data set [3] (HeLa, 10 nM or 50 nM) was “de-repressed the expression of the luciferase reporter”. Further, in data set [3] (HeLa, 1.9, 5.5, 16.7 and 50 nM), the “expression of the luciferase reporter, pGL3-mir-21 sensor, dose response” value was “de-repressed the expression of the luciferase reporter, in a dose-dependent fashion”. Also, in data set [4], the “expression levels of the mir-21 mature miRNA” value is reported as 50 % of those of untreated control cells. In data set [5] (HeLa, 100 nM), the “increase in levels of the mir-21 pri-miRNA molecule” value is recorded as “approximately 2 fold” and the “levels of the mir-21 pri-miRNA molecule” value was “stimulate an increase in levels of the mir-21 pri-miRNA molecule”. The “mir-21 pri-miRNA levels, dose response” value in data set [5] (HeLa, 25, 50, 100 and 200 nM) is “dose-responsive induction of mir-21 pri-miRNA levels”.
